Experimental data from the supplement of paper PMC10307832.

Legend:
Test in all cases: relative viability (nuclei count vs DMSO), 5 days (fraction); higher = more cells survive
Crenolanib + Foretinib = compound: CC1(COc2ccc3c(c2)ncn3-c2ccc3cccc(N4CCC(N)CC4)c3n2)COC1 [Crenolanib] + COc1cc2c(Oc3ccc(NC(=O)C4(C(=O)Nc5ccc(F)cc5)CC4)cc3F)ccnc2cc1OCCCN1CCOCC1 [Foretinib] (partner 0.25 µM)
Outline: (§1)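 Five library-drug doses in √10 steps were combined with a fixed anchor-drug dose, or a single drug was given alone, by pin tool to lung cancer cell lines in 1536-well plates the day after seeding. Nuclei were stained and counted after 5 days. Relative viability is the nuclei count in treated wells over that in vehicle wells, taken as the median of duplicate plates.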

Crenolanib + Vorinostat = compound: CC1(COc2ccc3c(c2)ncn3-c2ccc3cccc(N4CCC(N)CC4)c3n2)COC1 [Crenolanib] + O=C(CCCCCCC(=O)Nc1ccccc1)NO [Vorinostat] (partner 1 µM)
Outline: as §1

Tivantinib + Trametinib = compound: O=C1NC(=O)[C@@H](c2cn3c4c(cccc24)CCC3)[C@@H]1c1c[nH]c2ccccc12 [Tivantinib] + CC(=O)Nc1cccc(-n2c(=O)n(C3CC3)c(=O)c3c(Nc4ccc(I)cc4F)n(C)c(=O)c(C)c32)c1 [Trametinib] (partner 0.02 µM)
Outline: as §1

Tivantinib + Navitoclax = compound: O=C1NC(=O)[C@@H](c2cn3c4c(cccc24)CCC3)[C@@H]1c1c[nH]c2ccccc12 [Tivantinib] + CC1(C)CCC(c2ccc(Cl)cc2)=C(CN2CCN(c3ccc(C(=O)NS(=O)(=O)c4ccc(N[C@H](CCN5CCOCC5)CSc5ccccc5)c(S(=O)(=O)C(F)(F)F)c4)cc3)CC2)C1 [Navitoclax] (partner 0.5 µM)
Outline: as §1

Row | Cell Line | relative viability (Crenolanib + Foretinib; first compound 0.01 µM) | relative viability (Crenolanib + Foretinib; first compound 0.03162 µM) | relative viability (Crenolanib + Foretinib; first compound 0.1 µM) | relative viability (Crenolanib + Foretinib; first compound 0.3162 µM) | relative viability (Crenolanib + Foretinib; first compound 1 µM) | relative viability (Crenolanib + Vorinostat; first compound 0.01 µM) | relative viability (Crenolanib + Vorinostat; first compound 0.03162 µM) | relative viability (Crenolanib + Vorinostat; first compound 0.1 µM) | relative viability (Crenolanib + Vorinostat; first compound 0.3162 µM) | relative viability (Crenolanib + Vorinostat; first compound 1 µM) | relative viability (Tivantinib + Trametinib; first compound 0.01 µM) | relative viability (Tivantinib + Trametinib; first compound 0.03162 µM) | relative viability (Tivantinib + Trametinib; first compound 0.1 µM) | relative viability (Tivantinib + Trametinib; first compound 0.3162 µM) | relative viability (Tivantinib + Navitoclax; first compound 0.01 µM) | relative viability (Tivantinib + Navitoclax; first compound 0.03162 µM) | relative viability (Tivantinib + Navitoclax; first compound 0.1 µM) | relative viability (Tivantinib + Navitoclax; first compound 0.3162 µM)
1 | COR-L 105 | 0.972 | 1.18 | 0.848 | 1.32 | 1.05 | 0.842 | 0.957 | 0.904 | 1.08 | 0.922 | 0.425 | 0.412 | 0.455 | 0.356 | 0.856 | 0.867 | 0.748 | 0.626
2 | ChaGo-K-1 | 0.952 | 0.942 | 0.922 | 0.894 | 0.84 | 0.721 | 0.81 | 0.724 | 0.745 | 0.793 | 0.894 | 0.88 | 0.867 | 0.842 | 1.11 | 0.845 | 0.97 | 1.1
3 | EKVX | 1 | 0.71 | 0.802 | 0.796 | 0.757 | 0.928 | 0.752 | 0.722 | 0.888 | 0.654 | 0.408 | 0.437 | 0.325 | 0.146 | 0.996 | 0.953 | 0.929 | 0.433
4 | EMC-BAC-2 | 1.05 | 0.997 | 1.03 | 1.11 | 1.07 | 0.47 |  | 0.485 | 0.447 | 0.303 | 0.907 | 0.934 | 0.879 | 0.868 | 1.14 | 1.12 | 1.18 | 1.05
5 | EPLC-272H | 0.792 | 0.588 | 0.643 | 0.64 | 0.797 | 0.435 | 0.622 | 0.469 | 0.308 | 0.584 | 0.346 | 0.27 | 0.265 | 0.227 | 1.12 | 1.27 | 1.05 | 1.01
6 | H3255 | 0.935 | 0.851 | 0.84 | 0.877 | 1.06 | 0.811 | 0.744 | 0.838 | 0.853 | 0.726 |  | 0.5 | 0.642 | 0.234 | 0.559 | 0.564 | 0.508 | 
7 | HARA | 0.956 | 0.979 | 0.84 | 0.912 | 0.911 | 0.568 | 0.499 | 0.532 | 0.626 | 0.502 | 0.66 | 0.633 | 0.776 | 0.371 | 1.14 | 1.13 | 1.12 | 1.14
8 | HCC-15 | 1.08 | 1.07 | 0.989 | 1.01 | 0.853 | 0.954 | 0.888 | 0.844 | 0.877 | 0.775 | 0.387 | 0.371 | 0.36 | 0.337 | 0.728 | 0.628 | 0.684 | 0.698
9 | HCC-78 | 0.584 | 0.59 |  | 0.545 | 0.525 | 0.441 | 0.424 | 0.493 | 0.433 | 0.386 | 0.761 | 0.696 | 0.589 | 0.445 | 0.853 | 0.683 | 0.8 | 0.3
10 | HCC-366 | 0.918 | 0.954 | 0.956 | 0.942 | 0.938 | 0.377 | 0.357 | 0.335 | 0.426 | 0.216 | 0.355 | 0.523 | 0.338 | 0.332 | 0.951 | 1.14 | 1.03 | 1.07
11 | HCC-827 | 1.08 | 1.04 | 1.04 | 1.1 | 0.998 | 0.985 | 0.837 | 0.809 | 0.7 | 0.753 | 0.54 | 0.576 | 0.461 |  | 1.04 | 1.05 | 0.926 | 1.02
12 | HOP-62 | 1.19 | 1.23 | 1.09 | 1.08 | 1.15 | 0.653 | 0.542 | 0.635 | 0.829 | 0.552 | 0.458 | 0.346 | 0.356 | 0.37 | 0.9 | 0.859 | 1.07 | 1.02
13 | LC-2-ad | 1.1 | 1.1 | 0.858 | 0.971 | 0.823 | 0.726 | 0.674 | 0.67 | 0.736 | 0.679 | 0.912 | 0.879 | 0.851 | 0.903 | 0.375 | 0.436 | 0.438 | 0.308
14 | LCLC-97TM1 | 1.01 | 0.867 | 0.958 | 0.979 | 0.971 | 0.822 | 0.83 | 0.792 | 0.832 | 0.536 | 0.211 | 0.218 | 0.189 | 0.178 | 0.423 | 0.28 | 0.358 | 0.398
15 | LK-2 | 1.27 | 1.66 | 1.12 | 1.35 | 1.36 | 0.326 | 0.259 | 0.273 | 0.354 | 0.311 | 0.723 | 0.454 | 0.683 | 0.518 | 0.913 |  | 0.705 | 0.83
16 | LOU-NH91 | 0.969 | 0.914 | 0.893 | 0.888 | 0.892 | 0.996 | 0.913 | 0.878 | 0.886 | 0.867 | 0.724 | 0.762 | 0.81 | 0.691 | 0.651 | 0.637 | 0.622 | 0.355
17 | LU99A | 0.747 | 0.867 | 0.867 | 0.879 | 0.897 | 0.58 | 0.576 | 0.43 | 0.501 | 0.455 | 0.436 | 0.494 | 0.505 | 0.521 | 0.758 | 0.789 | 0.767 | 0.486
18 | LXF-289 | 1.02 | 0.971 | 0.942 | 0.989 | 0.977 | 0.734 | 0.798 | 0.712 | 0.723 | 0.637 | 0.628 | 0.631 | 0.628 | 0.669 | 0.987 | 0.949 | 0.93 | 0.933
19 | NCI-H23 | 1.12 | 1.13 | 0.97 | 0.995 | 1.06 | 0.722 | 0.565 | 0.621 | 0.517 | 0.459 | 0.509 | 0.352 | 0.37 | 0.347 | 0.987 | 1.01 | 0.759 | 0.753
20 | NCI-H322M | 0.951 | 1.07 | 0.973 | 0.96 | 0.98 | 0.872 | 0.789 | 0.872 | 0.808 | 0.784 | 0.486 | 0.471 | 0.449 |  | 1.11 | 1.06 | 1.14 | 1.16
21 | NCI-H441 | 1.13 | 1.05 | 0.775 | 0.951 | 0.958 | 0.98 | 0.705 | 0.657 | 1 | 0.832 | 0.476 | 0.405 | 0.448 | 0.352 | 0.737 | 0.869 |  | 0.439
22 | NCI-H460 | 1.02 | 1.06 | 0.938 | 1 | 0.99 | 0.743 | 0.701 | 0.688 | 1.16 | 0.768 | 0.172 | 0.114 | 0.286 | 0.169 | 1.06 | 1.02 | 0.988 | 1.13
23 | NCI-H520 | 0.671 | 0.89 | 0.651 | 0.724 | 0.746 | 0.703 | 0.641 | 0.733 | 0.765 | 0.652 | 0.798 | 0.723 | 0.576 | 0.701 | 1.12 | 1.17 | 0.995 | 1.1
24 | NCI-H596 | 0.774 | 0.89 | 0.752 | 0.78 | 1.03 | 0.586 | 0.546 | 0.616 | 0.592 | 0.594 | 0.897 | 0.839 | 0.774 | 0.678 | 1.07 | 1.02 | 0.948 | 0.73
25 | NCI-H647 | 1.25 | 1.09 | 1.11 | 1.23 | 1.28 | 0.631 | 0.66 | 0.366 | 0.679 | 0.722 | 0.462 | 0.411 | 0.416 | 0.369 | 1.06 | 1.27 | 1.07 | 0.758
26 | NCI-H727 | 0.915 | 0.975 | 0.835 | 0.893 | 0.809 | 1.35 | 1.31 | 1.06 | 1.32 | 1.07 | 0.413 | 0.343 | 0.398 |  | 0.412 | 0.432 | 0.311 | 
27 | NCI-H838 | 1.11 | 1.03 | 1.04 | 1.16 | 1.06 | 0.747 | 0.74 | 0.698 | 0.722 | 0.738 | 0.542 | 0.501 | 0.469 | 0.527 | 1.06 | 1.13 | 1.06 | 1.2
28 | NCI-H1355 | 1.02 | 1 | 0.94 | 1.07 | 0.906 | 0.661 | 0.674 | 0.626 | 0.706 | 0.481 | 0.476 | 0.412 | 0.469 | 0.367 | 0.879 | 0.966 | 0.949 | 0.808
29 | NCI-H1395 | 1.03 | 0.97 | 1.01 | 1.07 | 0.936 | 0.766 | 0.601 | 0.96 | 0.689 | 0.695 | 0.987 | 1.11 | 1.02 | 0.83 | 1.48 | 1.17 | 1.19 | 1.58
30 | NCI-H1437 | 1.28 | 1.28 | 1.31 | 1.31 | 1.14 | 0.843 | 0.868 | 0.781 | 0.857 | 0.628 | 0.637 | 0.464 | 0.441 | 0.514 | 1.1 | 1.11 | 0.968 | 1.1
